Assays:
Assay type in all cases: cell-based
[1] = tested on: Klebsiella pneumoniae XNWB 0004 (KPC-2, SHV-12); assay: microbe, parasite or virus in culture
Procedure: (§1) The bacterial strains used for the minimum inhibitory concentration (MIC) test were frozen in a −80° C. ULT freezer and thawed 2 days before use. A small amount of frozen bacterial strains were scraped using a sterile inoculating loop, streaked onto a TSA solid culture dish for inoculation, and then cultured for 20-24 h at 35±2° C. in a normal atmospheric environment.
(§2) 5-10 colonies with similar morphology were picked from the culture dish using a sterile inoculating loop and then re-streaked onto a suitable solid culture dish. Then the dish was placed into a normal incubator for culture for 20-24 h at 35±2° C.
(§3) 5-10 single bacterial colonies were picked from the solid culture dish, resuspended in 500 μL of 0.9% NaCl, and adjusted to an OD600 of 0.1-0.15 with a spectrophotometer.
(§4) The bacteria were then diluted 300-fold with 1.1×CAMHB.
(§5) After addition, the 6 assay plates were covered by sterile covers. The mixtures in the assay plates were centrifuged by a centrifuge at 1000 rpm for 30 s, and mixed uniformly by oscillating with a microplate oscillator at 800 rpm for 1 min, and then cultured in a common incubator for 16-20 h at 35±2° C.
(§6) The minimum inhibitory concentration of each compound was recorded by reference to guidelines from the Clinical and Laboratory Standards Institute.
(§7) The minimum inhibitory concentrations of the compounds of the present invention and antibiotics (imipenem, ceftazidime, and ampicillin) against 11 strains of bacteria were tested in this study by reference to the medium microdilution method as indicated by the Clinical and Laboratory Standards Institute. The effect of the test compounds in combination with imipenem, ceftazidime, and ampicillin was also tested. Compounds were diluted two-fold in 96-well plates from the highest detection concentration of 64 μg/mL. The test compounds were tested in combination with a fixed concentration of imipenem (4 μg/mL), ceftazidime (8 μg/mL), and ampicillin (8 μg/mL). The bacterial inocula in the assay plates were resuscitated from TSA and diluted in CAMHB, while growth controls (GC wells) and sterile controls (SC wells) were set up in the assay plates.

[2] = tested on: Klebsiella pneumoniae XNWB 0002 (KPC-2, SHV-5); assay: microbe, parasite or virus in culture
Procedure: as §1, §2, §3, §4, §5, §6, §7

[3] = tested on: Escherichia coli XNWB 0010 (SHV-2); assay: MIC of antibiotics alone, broth microdilution; conditions: antibiotic alone, E. coli XNWB 0010, β-lactamase SHV-2
Procedure: as §1, §2, §3, §4, §5, §6, §7

[4] = tested on: Acinetobacter baumannii XNWB 0007 (AmpC); assay: MIC of antibiotics alone, broth microdilution; conditions: antibiotic alone, A. baumannii XNWB 0007, β-lactamase AmpC
Procedure: as §1, §2, §3, §4, §5, §6, §7

[5] = tested on: Enterobacter aerogenes XNWB 0011 (TEM-10); assay: MIC of antibiotics alone, broth microdilution; conditions: Klebsiella aerogenes; antibiotic alone; E. aerogenes XNWB 0011, β-lactamase TEM-10
Procedure: as §1, §2, §3, §4, §5, §6, §7

[6] = tested on: Klebsiella pneumoniae XNWB 0001 (KPC-1/2); assay: MIC of antibiotics alone, broth microdilution; conditions: antibiotic alone, K. pneumoniae XNWB 0001, β-lactamase KPC-1/2
Procedure: as §1, §2, §3, §4, §5, §6, §7

[7] = tested on: Klebsiella pneumoniae XNWB 0005 (KPC-3); assay: MIC of antibiotics alone, broth microdilution
Procedure: as §1, §2, §3, §4, §5, §6, §7

[8] = tested on: Klebsiella pneumoniae XNWB 0006 (CTX-M-15, SHV); assay: MIC of antibiotics alone, broth microdilution
Procedure: as §1, §2, §3, §4, §5, §6, §7

[9] = tested on: Klebsiella pneumoniae XNWB 0003 (KPC-11, SHV-12); assay: MIC of antibiotics alone, broth microdilution
Procedure: as §1, §2, §3, §4, §5, §6, §7

[10] = tested on: Pseudomonas aeruginosa XNWB 0008 (AmpC); assay: MIC of antibiotics alone, broth microdilution
Procedure: as §1, §2, §3, §4, §5, §6, §7

[11] = tested on: Escherichia coli XNWB 0009 (SHV-5A); assay: MIC of antibiotics alone, broth microdilution
Procedure: as §1, §2, §3, §4, §5, §6, §7

Compound: CC(C)(O/N=C(\C(=O)N[C@@H]1C(=O)N2C(C(=O)[O-])=C(C[n+]3ccccc3)CS[C@H]12)c1csc(N)n1)C(=O)O [Ceftazidime]
- MIC [1]: > 128 µg/mL
- MIC [2]: 128 µg/mL
- MIC [3]: 4 to 16 µg/mL
- MIC [4]: 64 µg/mL
- MIC [5]: 0.5 to 1 µg/mL
- MIC [6]: 64 to 128 µg/mL
- MIC [7]: > 128 µg/mL
- MIC [8]: > 128 µg/mL
- MIC [9]: > 128 µg/mL
- MIC [10]: 128 µg/mL
- MIC [11]: 16 to 32 µg/mL

Reference: patent publication US11078202B2, “β-lactamase inhibitor and use thereof” (priority 2018, dated 2021)
